Data on seven compounds can be found in patent US20210346326A1, “COMPOSITIONS AND METHODS FOR ALTERING NEUTROPHIL MIGRATION AND METASTASIS” (The Wistar Institute of Anatomy and Biology, priority 2018, published 2021).

Where two headings read alike, the source gives them in different places.

Experiment [1] deals with PM-LC. Description: Transwell assay of spontaneous migration of PM-LC. Particulars: for spontaneous migration of PM-LC: PM-LC from one-week LL2 TB mice, agent 10 min prior to plating, 1 hour. In kind it is cell-based, mouse. The source says:
FIG. 7A-FIG. 7H. PM-LC spontaneous migration is dependent upon pannexin-1 hemichannels, extracellular ATP, and P2X and P2Y receptors. (FIG. 7A) Transwell assays evaluating the ability of PM-LC from one-week LL2 mice (left) (n=3) and RET mice (right) (n=5) to spontaneously migrate upon pannexin-1 hemichannel inhibition (panx). (FIG. 7B) Transwell assays evaluating the ability of neutrophils from control mice (n=8) and PM-LC from one-week LL2 mice (n=10) to spontaneously migrate upon apyrase treatment. (FIG. 7C-FIG. 7F) Transwell assays evaluating the ability of neutrophils from control mice (n=6) and PM-LC from one-week LL2 mice (n=7) to spontaneously migrate upon pan P2R inhibitor, P2XR, P2X1, P2Y, and A3R inhibition with suramin, NF449, MRS2179, AR-C118925XX, and MRS 1191, respectively. In addition, the ability of PM-LC from RET melanoma mice (n=3) to spontaneously migrate was also evaluated in the presence of P2Y inhibitors MRS2179 and AR-C118925XX. Individual values and mean and SD are shown. (FIG. 7G) Migration of BM neutrophils from control mice (n=3) and PMN-MDSC from 3-week LL2 mice (n=3) in response to stimulation with different concentrations of ADP. Mean and SD are shown. P values are calculated in two-sided Student's t-test. *−p<0.05; **−p<0.01; ***−p<0.001 (FIG. 7H) pMLC2 in BM neutrophils isolated from naive mice and one-week LL2 TB mice. Experiments were performed three times with similar results.
Unstimulated migration and chemotaxis was measured using a 3 μm pore transwell system (Neuro Probe Inc. or Sigma-Aldrich). Advanced RPMI with CXCL1 (BioLegend) or fMLP (Sigma-Aldrich) was placed in the bottom of the transwell, as indicated. 0.1×10^6 or 0.5×10^6 cells were incubated with pannexin inhibitor (^10Panx; Tocris), scrambled ^10Panx (Tocris), pan-P2XR inhibitor suramin (R&D Systems), P2X1 inhibitor NF 449 (Tocris), A3R inhibitor MRS 1191 (Santa Cruz), or apyrase (New England Biolabs) in Advanced RPMI for 10 min prior to being plated on top of the Neuro Probe system or Sigma-Aldrich system filter, respectively, and placed at 37° C., 5% CO2 for 1 hour. 10 μl media was taken from the bottom wells and counted by hemocytometer. The quantification of migrated neutrophils was done using the formula N=n×10^4×0.029 reflecting 29 µl media in the bottom well.

The conditions of experiment [2]: mice, compared to controls; cited from earlier work.
For experiment [3] the following is noted: rats, compared to controls; cited from earlier work.
The target in experiment [4] is P2Y1 receptor (Homo sapiens, UniProt P47900). The note with it: in vitro; cited from earlier work.
The test system of experiment [5] is pMLC2. Put plainly: pMLC2 Western blot in PM-LC. In kind it is cell-based, mouse. Particulars: PM-LC from one-week LL2 TB mice; treated 1 hour before Western blot. The protocol:
FIG. 15A-FIG. 15E. Expression of F-actin and genes associated with the glycolytic pathway. (FIG. 15A) Expression of indicated genes in neutrophils from control and RET melanoma mice measured in real-time quantitative PCR (n=3). Individual results for each mouse, mean and SD are shown. (FIG. 15B) F-actin was measured using flow cytometry before and after stimulation with CXCL1 or fMLP in BM neutrophils from indicated tumor models. Typical example of 4 experiments is shown. (FIG. 15C) F-actin in unstimulated cells evaluated by flow cytometry. Individual results for each mouse, mean and SD are shown. (FIG. 15D) F-actin in neutrophils and PMN-MDSC measured by flow cytometry (n=4). Individual results for each mouse, mean and SD are shown. Significant p values in two-sided Student's t-test are shown. (FIG. 15E) pMLC2 in neutrophils from control tumor-free and one-week LLC TB mice. Neutrophils were treated with vehicle alone or with P2Y2 inhibitor (ARC) for 1 hour before Western blot analysis. Two experiments with similar results were performed.

Experiment [6] concerns P2 receptors such as P2X3, P2Y1, and P2Y2, P2X1. Particulars: cited from earlier work.
In experiment [7] the test system is PMN-MDSC from 3-week LL2 mice. Description: Transwell assay of migration of PMN-MDSC. The note with it: different concentrations of ADP. In kind it is cell-based, mouse. The source says: (§1) FIG. 7A-FIG. 7H. PM-LC spontaneous migration is dependent upon pannexin-1 hemichannels, extracellular ATP, and P2X and P2Y receptors. (FIG. 7A) Transwell assays evaluating the ability of PM-LC from one-week LL2 mice (left) (n=3) and RET mice (right) (n=5) to spontaneously migrate upon pannexin-1 hemichannel inhibition (panx). (FIG. 7B) Transwell assays evaluating the ability of neutrophils from control mice (n=8) and PM-LC from one-week LL2 mice (n=10) to spontaneously migrate upon apyrase treatment. […] In addition, the ability of PM-LC from RET melanoma mice (n=3) to spontaneously migrate was also evaluated in the presence of P2Y inhibitors MRS2179 and AR-C118925XX. […] P values are calculated in two-sided Student's t-test. *−p<0.05; **−p<0.01; ***−p<0.001 (FIG. 7H) pMLC2 in BM neutrophils isolated from naive mice and one-week LL2 TB mice. […]
(§2) Unstimulated migration and chemotaxis was measured using a 3 μm pore transwell system (Neuro Probe Inc. or Sigma-Aldrich). […] 10 μl media was taken from the bottom wells and counted by hemocytometer. The quantification of migrated neutrophils was done using the formula N=n×10^4×0.029 reflecting 29 µl media in the bottom well.

Experiment [8] concerns BM neutrophils from control mice. Put plainly: Transwell assay of spontaneous migration of control neutrophils. In kind it is cell-based, mouse.
Description: as §1, §2

Chain of P2Y1 receptor (P47900 whole entry): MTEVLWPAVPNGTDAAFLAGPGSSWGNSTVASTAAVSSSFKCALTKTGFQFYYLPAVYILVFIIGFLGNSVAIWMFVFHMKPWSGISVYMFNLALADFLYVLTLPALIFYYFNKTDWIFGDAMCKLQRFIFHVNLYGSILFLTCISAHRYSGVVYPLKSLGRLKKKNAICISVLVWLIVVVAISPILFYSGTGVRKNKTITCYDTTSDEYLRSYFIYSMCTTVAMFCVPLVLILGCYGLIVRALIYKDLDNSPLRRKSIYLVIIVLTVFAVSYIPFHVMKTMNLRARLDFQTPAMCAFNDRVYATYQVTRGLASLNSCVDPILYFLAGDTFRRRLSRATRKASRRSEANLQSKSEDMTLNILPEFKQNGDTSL

With `Cc1ccc(C(=O)Nc2ccc(S(=O)(=O)O)c3cc(S(=O)(=O)O)cc(S(=O)(=O)O)c23)cc1NC(=O)c1cccc(NC(=O)Nc2cccc(C(=O)Nc3cc(C(=O)Nc4ccc(S(=O)(=O)O)c5cc(S(=O)(=O)O)cc(S(=O)(=O)O)c45)ccc3C)c2)c1` [suramin], the “spontaneous migration of PM-LC” value in experiment [1] is listed as “completely abrogated”.
As to `CNc1ncnc2c1ncn2[C@H]1C[C@H](OP(=O)(O)O)[C@@H](COP(=O)(O)O)O1.N` [MRS2179, 3′-adenylic acid, 2′-deoxy-N-methyl-5′-(dihydrogen phosphate), ammonium salt], the bleeding time entry in experiment [2] and in experiment [3] was “prolongs bleeding time” throughout. Further, the “spontaneous migration of PM-LC” value in experiment [1] is “completely abrogated the increased spontaneous migration”. Moreover, the “pA2, inhibition of ADP-induced platelet shape change and aggregation” value in experiment [4] was 6.55.
For `CCOC(=O)C1=C(C)NC(c2ccccc2)=C(C(=O)OCc2ccccc2)C1C#Cc1ccccc1` (centres unmarked) [MRS 1191], in experiment [1], the “spontaneous migration of PM-LC” value is “did not affect”.
`Cc1ccc2c(c1)C=Cc1cc(C)ccc1C2c1cn(Cc2ccc(C(=O)Nc3nn[nH]n3)o2)c(=O)[nH]c1=S` [AR-C118925XX, 5-[[5-(2,8-Dimethyl-5H-dibenzo[a,d]cyclohepten-5-yl)-3,4-dihydro-2-oxo-4-thioxo-1(2H)-pyrimidinyl]methyl]-N-2H-tetrazol-5-yl-2-furancarboxamide]: in experiment [5], the “up-regulation of pMLC2 in PM-LC” value is recorded as “abrogated”. In addition, the “spontaneous migration of PM-LC” value in experiment [1] is “completely abrogated the increased spontaneous migration”.
`O=C(Nc1cc(C(=O)Nc2ccc(S(=O)(=O)[O-])cc2S(=O)(=O)[O-])cc(C(=O)Nc2ccc(S(=O)(=O)[O-])cc2S(=O)(=O)[O-])c1)Nc1cc(C(=O)Nc2ccc(S(=O)(=O)[O-])cc2S(=O)(=O)[O-])cc(C(=O)Nc2ccc(S(=O)(=O)[O-])cc2S(=O)(=O)[O-])c1.[Na+].[Na+].[Na+].[Na+].[Na+].[Na+].[Na+].[Na+]` [NF449, 4,4′,4″,4″′-[Carbonylbis(imino-5,1,3-benzenetriyl-bis(carbonylimino))]tetrakis-1,3-benzen edisulfonic acid octasodium salt]: the “inhibition of the ability of PM-LCs to spontaneously migrate” value in experiment [1] (PM-LC from one-week LL2 mice) is on record as 50%. For the same compound, the “selectivity among P2 receptors” value in experiment [6] is recorded as “highest selectivity towards P2X1”.
Consider `Nc1ncnc2c1ncn2[C@@H]1O[C@H](COP(=O)(O)OP(=O)(O)O)[C@@H](O)[C@H]1O` [ADP], for which, in experiment [7], the “migration of PMN-MDSC on stimulation” value is given as “significantly increased migration”. Also, the “migration of control neutrophils on stimulation” value in experiment [8] (BM neutrophils from control mice, different concentrations of ADP) was “significantly increased migration”.
Regarding apyrase, the “spontaneous migration of PM-LC” value in experiment [1] is “completely abrogated”. For the same compound, the “spontaneous migration of control neutrophils” value in experiment [8] (neutrophils from control mice, Transwell) is recorded as “completely abrogated”.
